According to the CheMixHub drug solubility set:

Assay: xn = mol fraction of the nth substance listed, in the solute-free solvent

NC(=O)NC1NC(=O)NC1=O (stereo unspecified) + OCCO + O
solubility (g/100 g solution)
Settings	288.15 K	293.15 K	298.15 K	303.15 K	308.15 K	313.15 K	318.15 K	323.15 K	328.15 K	333.15 K
x2 = 0.075	0.367	0.468	0.57	0.749	0.887	1.12	1.37	1.67	1.93	2.38
x2 = 0.177	0.387	0.478	0.581	0.732	0.858	1.02	1.24	1.47	1.75	2.09
x2 = 0.327	0.439	0.481	0.62	0.747	0.847	1	1.17	1.43	1.67	1.88
x2 = 0.564	0.406	0.49	0.601	0.725	0.819	0.962	1.1	1.29	1.44	1.7
x2 = 0.744	0.466	0.515	0.628	0.712	0.779	0.924	1.03	1.2	1.33	1.54

Nc1nc2ccc(OC(F)(F)F)cc2s1 + CCCO + O
solubility (g/100 g solution)
Settings	278.15 K	283.15 K	288.15 K	293.15 K	298.15 K	303.15 K	308.15 K	313.15 K	318.15 K	323.15 K
x2 = 0.1138	11.3	12.7	13.8	14.7	15.4	16.1	16.7	17.1	17.7	18.2
x2 = 0.1666	19.6	21.1	22.3	23.1	24	24.9	25.7	26.4	27.5	28.6
x2 = 0.2306	33.4	34.7	35.8	37.2	38.1	39.2	40.1	40.9	41.9	42.8
x2 = 0.3103	39.9	40.9	42.4	43.4	45	46.2	47.9	49.2	50.6	52.4
x2 = 0.4116	53.3	56.1	58.5	60.7	63	64.6	66.3	67.6	68.7	69.7
x2 = 0.5454	54.6	56.3	57.9	59.9	61.7	63.6	65.3	66.6	67.9	68.7
x2 = 0.7292	48.8	50.6	52.6	54.6	56.6	58.2	60.2	61.6	63.1	64

Nc1nc2ccc(OC(F)(F)F)cc2s1 + CC(C)=O + O
solubility (g/100 g solution)
Settings	278.15 K	283.15 K	288.15 K	293.15 K	298.15 K	303.15 K	308.15 K	313.15 K	318.15 K	323.15 K
x2 = 0.1174	2.79	2.99	3.26	3.49	3.89	4.23	4.48	4.79	4.98	5.23
x2 = 0.1714	6.6	6.96	7.42	7.95	8.29	8.75	9.09	9.43	9.77	10.1
x2 = 0.2367	25.5	25.9	26.5	27	27.6	28	28.5	29.1	29.8	30.1
x2 = 0.3175	40.2	40.6	40.9	41.1	41.5	41.8	42	42.3	42.7	43
x2 = 0.4203	55.1	56.3	57	57.7	59	60.2	61.1	62.2	62.9	63.6
x2 = 0.5537	70.6	71.7	72.7	73.6	74.5	75.3	76.2	76.7	77.2	77.8
x2 = 0.7361	68	69	69.9	71	71.8	72.8	73.6	74.2	75	75.7

CC1CCC2C(C)C(OC(=O)CCC(=O)O)OC3OC4(C)CCC1C32OO4 (stereo unspecified) + CC(C)O + O
solubility (g/100 g solution)
Settings	278.15 K	283.15 K	288.15 K	293.15 K	298.15 K	303.15 K	308.15 K	313.15 K	318.15 K
x2 = 0.03232	0.0811	0.106	0.134	0.171	0.208	0.263	0.325	0.397	0.486
x2 = 0.06978	0.226	0.289	0.358	0.447	0.536	0.663	0.804	0.965	1.16
x2 = 0.114	0.47	0.591	0.72	0.884	1.05	1.27	1.52	1.8	2.13
x2 = 0.1666	0.786	0.985	1.18	1.43	1.68	2.02	2.37	2.77	3.23
x2 = 0.2309	1.12	1.38	1.65	1.97	2.31	2.72	3.18	3.68	4.25
x2 = 0.3106	1.41	1.7	2.02	2.43	2.8	3.3	3.83	4.42	5.04
x2 = 0.4116	1.62	1.95	2.3	2.75	3.15	3.69	4.24	4.87	5.54
x2 = 0.5455	1.77	2.13	2.49	2.94	3.37	3.92	4.5	5.12	5.8
x2 = 0.7299	1.84	2.17	2.53	3	3.42	3.96	4.53	5.15	5.78

CC(S)C(=O)NCC(=O)O (stereo unspecified) + CC(C)CO + CC#N
solubility (g/100 g solution)
Settings	273.15 K	278.15 K	283.15 K	288.15 K	293.15 K	298.15 K	303.15 K	308.15 K	313.15 K	318.15 K
x2 = 0.1216	3.99	4.43	4.93	5.48	6.05	6.7	7.36	8.06	8.81	9.64
x2 = 0.2697	4.62	5.31	6.02	6.81	7.59	8.41	9.25	10.1	11.2	12.4
x2 = 0.4538	7.02	7.59	8.23	8.89	9.58	10.4	11.1	12	13	13.9
x2 = 0.689	4.17	4.7	5.22	5.84	6.48	7.14	7.88	8.69	9.56	10.5

COC(=O)C(N)CS.Cl (stereo unspecified) + CCO + ClCCl
solubility (g/100 g solution)
Settings	x2 = 0.05	x2 = 0.1	x2 = 0.2	x2 = 0.3	x2 = 0.4	x2 = 0.5	x2 = 0.6	x2 = 0.7	x2 = 0.8	x2 = 0.9
283.15 K	0.323	0.991	1.88	2.62	3.2	3.86	4.64	5.33	6.02	6.92
288.15 K	0.362	1.02	2.21	3.14	3.93	4.46	5.07	5.91	6.77	7.59
293.15 K	0.393	1.21	2.46	3.54	4.26	5.23	5.88	6.62	7.47	8.49
298.15 K	0.43	1.4	2.7	4.09	4.98	5.89	6.66	7.51	8.75	9.98
303.15 K	0.493	1.42	3.03	4.65	5.72	6.77	7.79	8.77	10.3	11.9
